Experimental data as given in US11613546B2, “Substituted pyridotriazine compounds and uses thereof” (Gilead Sciences, Inc., priority 2021, dated 2023).
Read-outs that look alike come from different tables or passages of the source.

Columns and labels:
Assay type in all cases: cell-based
HIV-1 (IIIB) = assay: Antiviral assay in MT-4 cells; conditions: Human immunodeficiency virus 1, IIIB, MT4, 120 h, HIV-1 IIIB infected MT-4 cells, 5 days, Cell Titer Glo; read-out: MT4 EC50
Method: Antiviral Assay in MT-4 Cells
(§1) Compounds were tested in a high-throughput 384-well assay format for their ability to inhibit the replication of HIV-1 (IIIB) in MT-4 cells. Compounds were serially diluted (1:3) in DMSO on 384-well polypropylene plates and further diluted 200-fold into complete RPMI media (10% FBS, 1% P/S) using the Biotek Micro Flow and Labcyte ECHO acoustic dispenser. Each plate contained up to 8 test compounds, with negative (No Drug Control) and 5 μM AZT positive controls. MT-4 cells were pre-infected with 10 μL of either RPMI (mock-infected) or a fresh 1:250 dilution of HIV-1 IIIB concentrated virus stock. Infected and uninfected MT-4 cells were further diluted in complete RPMI media and added to each plate using a Micro Flow dispenser. After 5 days incubation in a humidified and temperature controlled incubator (37° C.), Cell Titer Glo (Promega) was added to the assay plates and chemiluminescence read using an Envision plate-reader. EC50 values were defined as the compound concentration that causes a 50% decrease in luminescence signal, and were calculated using a sigmoidal dose-response model to generate curve fits.

pLai RLuc reporter virus = assay: HIV MT-4 serum shift antiviral reporter assay; conditions: Human immunodeficiency virus 1, 72 h
Method: To quantify the amount of protein binding to human serum, compounds were serially diluted (1:3) in DMSO and acoustically transferred onto 384-well assay plates via a Labcyte ECHO robot. Each plate contained up to 8 test compounds, including negative and positive controls, (DMSO, 5 μM AZT respectively). Assay plates were prepared in duplicate, and tested in either CCM (cell culture media) or HS/CCM (human serum/cell culture media). MT-4 cells were first pre-infected with pLai RLuc reporter virus for 2 h at 37° C., then further diluted in either CCM (RPMI media, 10% FBS, 1% P/S) or HS/CCM (RPMI media, 10% FBS, 50% HS, 1% P/S), and subsequently added to each plate using a Biotek Micro Flow dispenser. After a 72-h incubation in a humidified and temperature controlled incubator (37° C.), Renilla Glo (Promega) was added to all assay plates and chemiluminescence read using an Envision plate-reader. EC50 values were defined as the compound concentration that causes a 50% decrease in luminescence signal, and were calculated using a sigmoidal dose-response model to generate curve fits. To determine the amount of protein binding, EC50 fold shifts (or EC50 shifts) were calculated by dividing EC50 (HS/CCM)/EC50 (CCM).

[1] = Cytotoxicity assay in MT-4 cells; conditions: human
Method: as §1, with “fits. Cytotoxicity Assay in MT-4 Cells Assays were performed as above except uninfected MT-4 cells were added to each well containing test compound. In addition, 10 μM puromycin was added to the last column of each assay plate to assess a base level of cytotoxicity.” for “fits.”

[2] = read-out: RLUC 50% HS (nM), HS/CCM: 50% human serum, 72 h, Renilla Glo
[3] = read-out: RLUC CCM (nM), cell culture media (RPMI, 10% FBS), 72 h, Renilla Glo
[4] = uninfected MT-4 cells, 5 days, Cell Titer Glo, read-out: CC50

Structure (SMILES): CO[C@@H]1[C@H](OC)[C@@H](C)N2CN(C(=O)c3c(O)c(=O)c(C(=O)NCc4c(F)cc(F)cc4F)cn32)[C@H]1C [Example C32, (1S,2R,3R,4S,5S)-8-hydroxy-3,4-dimethoxy-2,5-dimethyl-7,9-dioxo-N-(2,4,6-trifluorobenzyl)-2,3,4,5,7,9-hexahydro-1,6-methanopyrido[1,2-b][1,2,5]triazonine-10-carboxamide]
- EC50 (HIV-1 (IIIB)): 2.4 nM
- EC50 (pLai RLuc reporter virus; [2]): 1.04 nM
- EC50 (pLai RLuc reporter virus; [3]): 0.55 nM
- CC50 at 5 days [1, 4]: 28000 nM

Structure (SMILES): C[C@@H]1C[C@H](F)[C@H](C)N2CN1n1cc(C(=O)NCc3ccc(F)cc3F)c(=O)c(O)c1C2=O [Example C52, (1S,2R,4S,5S)—N-(2,4-difluorobenzyl)-4-fluoro-8-hydroxy-2,5-dimethyl-7,9-dioxo-2,3,4,5,7,9-hexahydro-1,6-methanopyrido[1,2-b][1,2,5]triazonine-10-carboxamide]
- EC50 (HIV-1 (IIIB)): 1.5 nM
- EC50 (pLai RLuc reporter virus; [2]): 473 nM
- EC50 (pLai RLuc reporter virus; [3]): 0.77 nM
- CC50 at 5 days [1, 4]: 9220 nM

Structure (SMILES): C[C@@H]1C/C=C\[C@H](C)N2CN1n1cc(C(=O)NCc3c(F)cc(F)cc3F)c(=O)c(O)c1C2=O [Example C12, (1R,2S,6R,Z)-9-hydroxy-2,6-dimethyl-8,10-dioxo-N-(2,4,6-trifluorobenzyl)-3,6,8,10-tetrahydro-2H-1,7-methanopyrido[1,2-b][1,2,5]triazecine-11-carboxamide]
- EC50 (HIV-1 (IIIB)): 3.4 nM
- EC50 (pLai RLuc reporter virus; [2]): 273 nM
- EC50 (pLai RLuc reporter virus; [3]): 0.77 nM
- CC50 at 5 days [1, 4]: 10800 nM

Structure (SMILES): C[C@H]1C=CC2(CCC2)N2CN1C(=O)c1c(O)c(=O)c(C(=O)NCc3c(F)cc(F)cc3F)cn12 [Example C104, (1′S,5′S)-8′-hydroxy-5′-methyl-7′,9′-dioxo-N-(2,4,6-trifluorobenzyl)-7′,9′-dihydro-5′H-spiro[cyclobutane-1,2′-[1,6]methanopyrido[1,2-b][1,2,5]triazonine]-10′-carboxamide]
- EC50 (HIV-1 (IIIB)): 1.4 nM
- EC50 (pLai RLuc reporter virus; [2]): 140 nM
- EC50 (pLai RLuc reporter virus; [3]): 0.44 nM
- CC50 at 5 days ([1]; CC50 (nM)): 19700 nM

Structure (SMILES): C[C@H]1C=C[C@@H](CF)N2CN1n1cc(C(=O)NCc3ccc(F)cc3F)c(=O)c(O)c1C2=O [Example C97, (1R,2S,5S)—N-(2,4-difluorobenzyl)-5-(fluoromethyl)-8-hydroxy-2-methyl-7,9-dioxo-2,5,7,9-tetrahydro-1,6-methanopyrido[1,2-b][1,2,5]triazonine-10-carboxamide]
- EC50 (HIV-1 (IIIB)): 34.9 nM
- EC50 (pLai RLuc reporter virus; [2]): 1730 nM
- EC50 (pLai RLuc reporter virus; [3]): 14.7 nM
- CC50 at 5 days [1, 4]: 9550 nM

Structure (SMILES): CC[C@@H]1CC[C@H](C)N2CN1n1cc(C(=O)NCc3c(F)cc(F)cc3F)c(=O)c(O)c1C2=O [Example C73, (1S,2R,5S)-2-ethyl-8-hydroxy-5-methyl-7,9-dioxo-N-(2,4,6-trifluorobenzyl)-2,3,4,5,7,9-hexahydro-1,6-methanopyrido[1,2-b][1,2,5]triazonine-10-carboxamide]
- EC50 (HIV-1 (IIIB)): 0.8 nM
- EC50 (pLai RLuc reporter virus; [2]): 276 nM
- EC50 (pLai RLuc reporter virus; [3]): 0.63 nM
- CC50 at 5 days [1, 4]: 7640 nM

Structure (SMILES): C[C@@H]1CC[C@H](CF)N2CN1n1cc(C(=O)NCc3ccc(F)cc3F)c(=O)c(O)c1C2=O [Example C98, (1S,2R,5R)—N-(2,4-difluorobenzyl)-5-(fluoromethyl)-8-hydroxy-2-methyl-7,9-dioxo-2,3,4,5,7,9-hexahydro-1,6-methanopyrido[1,2-b][1,2,5]triazonine-10-carboxamide]
- EC50 (HIV-1 (IIIB)): 2 nM
- EC50 (pLai RLuc reporter virus; [2]): 462 nM
- EC50 (pLai RLuc reporter virus; [3]): 1.03 nM
- CC50 at 5 days [1, 4]: 8930 nM

Structure (SMILES): C[C@H]1CC[C@@H](CF)N2CN1C(=O)c1c(O)c(=O)c(C(=O)NCc3c(F)cc(F)cc3F)cn12 [Example C77, (1S,2S,5S)-2-(fluoromethyl)-8-hydroxy-5-methyl-7,9-dioxo-N-(2,4,6-trifluorobenzyl)-2,3,4,5,7,9-hexahydro-1,6-methanopyrido[1,2-b][1,2,5]triazonine-10-carboxamide]
- EC50 (HIV-1 (IIIB)): 2 nM
- EC50 (pLai RLuc reporter virus; [2]): 296 nM
- EC50 (pLai RLuc reporter virus; [3]): 1.14 nM
- CC50 at 5 days [1, 4]: 15700 nM

Structure (SMILES): C[C@H]1CC[C@@H](CF)N2CN1n1cc(C(=O)NCc3ccc(F)cc3F)c(=O)c(O)c1C2=O [Example C96, (1R,2S,5S)—N-(2,4-difluorobenzyl)-5-(fluoromethyl)-8-hydroxy-2-methyl-7,9-dioxo-2,3,4,5,7,9-hexahydro-1,6-methanopyrido[1,2-b][1,2,5]triazonine-10-carboxamide]
- EC50 (HIV-1 (IIIB)): 11.2 nM
- EC50 (pLai RLuc reporter virus; [2]): 958 nM
- EC50 (pLai RLuc reporter virus; [3]): 8.27 nM
- CC50 at 5 days [1, 4]: 5370 nM

Structure (SMILES): C[C@@H]1C[C@@H](CF)[C@H](C)N2CN1n1cc(C(=O)NCc3c(F)cc(F)cc3F)c(=O)c(O)c1C2=O [Example C57, (1S,2R,4R,5S)-4-(fluoromethyl)-8-hydroxy-2,5-dimethyl-7,9-dioxo-N-(2,4,6-trifluorobenzyl)-2,3,4,5,7,9-hexahydro-1,6-methanopyrido[1,2-b][1,2,5]triazonine-10-carboxamide]
- EC50 (HIV-1 (IIIB)): 1.2 nM
- EC50 (pLai RLuc reporter virus; [2]): 11.6 nM
- EC50 (pLai RLuc reporter virus; [3]): 0.27 nM
- CC50 at 5 days [1, 4]: 8930 nM

Structure (SMILES): C[C@@H]1CC(F)(F)[C@H](C)N2CN1n1cc(C(=O)NCc3ccc(F)cc3F)c(=O)c(O)c1C2=O [Example C54, (1S,2R,5S)—N-(2,4-difluorobenzyl)-4,4-difluoro-8-hydroxy-2,5-dimethyl-7,9-dioxo-2,3,4,5,7,9-hexahydro-1,6-methanopyrido[1,2-b][1,2,5]triazonine-10-carboxamide]
- EC50 (HIV-1 (IIIB)): 2.3 nM
- EC50 (pLai RLuc reporter virus; [2]): 72.4 nM
- EC50 (pLai RLuc reporter virus; [3]): 0.63 nM
- CC50 at 5 days [1, 4]: 47400 nM

Structure (SMILES): C[C@@H]1CC[C@@H](C)N2CN1C(=O)c1c(O)c(=O)c(C(=O)NCc3ccc(F)cc3F)cn12 [Example C67, (1S,2R,5R)—N-(2,4-difluorobenzyl)-8-hydroxy-2,5-dimethyl-7,9-dioxo-2,3,4,5,7,9-hexahydro-1,6-methanopyrido[1,2-b][1,2,5]triazonine-10-carboxamide]
- EC50 (HIV-1 (IIIB)): 1.9 nM
- EC50 (pLai RLuc reporter virus; [2]): 35.3 nM
- EC50 (pLai RLuc reporter virus; [3]): 0.51 nM
- CC50 at 5 days [1, 4]: 25500 nM

Structure (SMILES): O=C(NCc1c(F)cc(F)cc1F)c1cn2c(c(O)c1=O)C(=O)N1CCCCN2C1Cc1ccccc1 (stereo not shown) [Example C6, 13-benzyl-8-hydroxy-7,9-dioxo-N-(2,4,6-trifluorobenzyl)-2,3,4,5,7,9-hexahydro-1,6-methanopyrido[1,2-b][1,2,5]triazonine-10-carboxamide]
- EC50 (HIV-1 (IIIB)): 7.5 nM
- EC50 (pLai RLuc reporter virus; [2]): 23.1 nM
- EC50 (pLai RLuc reporter virus; [3]): 3.5 nM
- CC50 at 5 days [1, 4]: 9880 nM

Structure (SMILES): C[C@@H]1CCCCN2CN1n1cc(C(=O)NCc3ccc(F)cc3F)c(=O)c(O)c1C2=O [Example C13, (1S,2R)—N-(2,4-difluorobenzyl)-9-hydroxy-2-methyl-8,10-dioxo-3,4,5,6,8,10-hexahydro-2H-1,7-methanopyrido[1,2-b][1,2,5]triazecine-11-carboxamide]
- EC50 (HIV-1 (IIIB)): 1.3 nM
- EC50 (pLai RLuc reporter virus; [2]): 4.07 nM
- EC50 (pLai RLuc reporter virus; [3]): 0.25 nM
- CC50 at 5 days [1, 4]: 8870 nM

Structure (SMILES): C[C@@H]1C=C[C@H](CF)N2CN1n1cc(C(=O)NCc3c(F)cc(F)cc3F)c(=O)c(O)c1C2=O [Example C50, (1S,2R,5R)-5-(fluoromethyl)-8-hydroxy-2-methyl-7,9-dioxo-N-(2,4,6-trifluorobenzyl)-2,5,7,9-tetrahydro-1,6-methanopyrido[1,2-b][1,2,5]triazonine-10-carboxamide]
- EC50 (HIV-1 (IIIB)): 0.85 nM
- EC50 (pLai RLuc reporter virus; [2]): 850 nM
- EC50 (pLai RLuc reporter virus; [3]): 0.37 nM
- CC50 at 5 days [1, 4]: 13300 nM

Structure (SMILES): C[C@H]1C=CCN2CN1C(=O)c1c(O)c(=O)c(C(=O)NCc3c(F)cc(F)cc3F)cn12 [Example C5, (10S)-6-hydroxy-10-methyl-5,8-dioxo-N-[(2,4,6-trifluorophenyl)methyl]-1,2,9-triazatricyclo[7.4.1.02,7]tetradeca-3,6,11-triene-4-carboxamide]
- EC50 (HIV-1 (IIIB)): 3.4 nM
- EC50 (pLai RLuc reporter virus; [2]): 40.4 nM
- EC50 (pLai RLuc reporter virus; [3]): 0.42 nM
- CC50 at 5 days [1, 4]: 14200 nM
